Measured values: PMC2952853 (Nucleic Acids Research, 2010)

Tests used:
RutR (RutR-His6; YcdC) [1] = biological target: T1, RutR (RutR-His6; YcdC) (Escherichia coli, UniProt P0ACU2); assay type: binding; settings: read-out: % inhibition at 100 μM
T1 sequence (P0ACU2 1-212): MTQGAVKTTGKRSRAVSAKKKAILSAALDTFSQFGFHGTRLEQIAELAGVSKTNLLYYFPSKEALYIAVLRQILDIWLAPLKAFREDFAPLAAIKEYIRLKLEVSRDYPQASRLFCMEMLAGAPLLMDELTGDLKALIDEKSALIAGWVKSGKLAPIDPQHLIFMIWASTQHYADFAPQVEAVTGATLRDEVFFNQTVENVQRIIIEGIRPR

RutR (RutR-His6; YcdC) [2] = biological target: T1, RutR (RutR-His6; YcdC); assay: EMSA, inhibition of RutR binding to […]-labelled carP1

Row | inhibition at 100 µM (RutR (RutR-His6; YcdC) [1]) [%] | IC50 (RutR (RutR-His6; YcdC) [2]) [µM] | Compound
1 | ~50 |  | Cc1c[nH]c(=O)[nH]c1=O [thymine]
2 |  | ~0.1 | O=c1cc[nH]c(=O)[nH]1 [uracil]
